Measured values as given in patent US11576913B2 (priority 2018, dated 2023).
Where two headings read alike, the source gives them in different places.

Key:
[1] = assay type: in vivo, human; conditions: Compound (1C) tablets administered orally
Excerpt: The comparators in an abuse potential study are typically controlled substances from the same pharmacologic class as the investigational drug. However, Compound (1C) is a novel drug class for which no controlled substances/drugs of abuse are available for comparison. […] There was no evidence of other effects of interest to abusers, such as perceptual disturbances or stimulation. […] Placebo control was used to establish the frequency and magnitude of changes in clinical endpoints that may occur in the absence of active treatment as well as to minimize subject and investigator bias.

[2] = tested on: subjects suffering from the Insomnia Disorder adult insomnia; assay type: in vivo, human
Procedure: Following the evening-time dosing with study drug, subjects underwent eight hours of continuous PSG recording. Next-day residual effects were assessed by the DSST and the KSS evaluation, collected in that order, starting at approximately 30 minutes after “lights-on.” All tests were administered in the clinical unit, beginning 30 minutes after lights-on and periodically thereafter for approximately 16 hours post-lights-off, following completion of PSG recording. Each subject also completed a post-sleep questionnaire once after lights-on so that subjective impressions could be assessed about the “quality” and “quantity” of their sleep. Before the second night dosing in each dosing period, subjects were evaluated for any residual sleepiness. […] Subjects remained in the clinic until residual symptoms were minimized.
The well-known DSST is a paper-and-pencil neuropsychological test that explores attention and psychomotor speed and was therefore useful as an indication of next day residual effects, if any. When administered in multiple sessions over time, the DSST provided an objective indication of the change in performance.
Each subject was asked to match symbols with their corresponding digit as follows. […] The subject filled in as many squares as possible during the allowed 90 second time limit. The score was determined from the number of correct symbols. An untimed 7 blank square practice opportunity was provided before the 90 second time period began. Six different versions of the test were used to avoid learning effects that could occur if only a single version was used.
The DSST was administered starting approximately ½ hour after lights-on (i.e., about 9 hours post-dosing) and at about 1, 3, 4, 5, and 7 hours thereafter following completion of PSG recordings after each night of the baseline visit (Visit 2) and after each night of Dosing Periods 1-5.
The DSST results shown, other than for the baseline, are the mean results obtained from the DSST scores following all nights of Dosing Periods 1-5 for the indicated dose. The DSST results for the baseline are the mean results obtained following the first and second nights of the baseline visit. Note that for clarity of display purposes, in FIG. 6 many of the test results at each time period, e.g., at approximately ½ hour after lights-on/9 hours post-dosing, were staggered arbitrarily away from the actual time when the test was conducted.

clinical [3] = assay type: in vivo, human; conditions: for Fe, Mean (CV %): unchanged in urine; for CLr, Mean / Tmax / half-life / AUC / CL renal / Cmax: human, in vivo; for half-life: read-out: T1/2, Mean (CV %) (converted); for AUC / Cmax: Mean (CV %); for CL renal: CLr, Mean
Excerpt: This study was designed to evaluate the safety and pharmacokinetic (“PK”) interactions between Compound (1C) and alcohol in healthy subjects. […] The study was designed as a single-site, randomized, single-dose, double-blinded, placebo-controlled crossover study, and 46 subjects completed treatment as part of the study.
The dose of alcohol at 0.7 g/kg was consistent with the NIAAA definition of binge drinking, which can lead to blood alcohol concentration of approximately 0.08 g/dL. In the United States this is generally considered the level at which a person is legally impaired. In addition, such dose level has been studied in previously completed relevant alcohol interaction study in which the safety and tolerability were established in a similar population (Hong Sun et al. “Psychomotor effects, pharmacokinetics and safety of the orexin receptor antagonist suvorexant administered in combination with alcohol in healthy subjects.” Journal of Psychopharmacology 2015, Vol. 29(11) 1159-1169).
Briefly, blinded alcoholic beverage or placebo beverage was consumed over a 20- to 30-minute period. The beverage was divided into 3 parts, with approximately ⅓ administered (consumed to completion by subject at their own pace) every 10 minutes, […], in order to control for drinking rate.
Subjects swallowed Compound (1C) with the alcoholic beverage, with small sips of water as needed if the subject could not drink the alcohol quickly enough to consume the alcohol. […] A mouthwash with water was provided before and at the end of dosing. A mouth check was performed to verify that the Compound (1C) doses administered are swallowed. Vital signs and oxygen saturation, SpO2, (FIG. 26) were collected for evaluation by the investigator.
AUCt Area under the plasma concentration-time curve from hour 0 to the last measurable plasma concentration, calculated by the linear trapezoidal method.
AUCinf Area under the plasma concentration-time curve extrapolated to infinity:
Where Ct is the last measurable plasma concentration and […] is the apparent terminal phase rate constant;
Cmax Maximum observed plasma concentration
Tmax Time to maximum plasma concentration
T1/2 Apparent terminal phase half-life: T1/2=(ln2)/λz

clinical [4] = assay type: in vivo, human; conditions: for mean fraction of dose excreted unchanged in urine over 48 hours (Fe48): day 1; for mean fraction of dose excreted unchanged in urine over 24 hours (Fe24): day 16
[5] = not given; remark: listed apart in the source
[6] = 0.2 mg aqueous suspension (N =24)
[7] = 0.6 mg aqueous suspension (N =24)
[8] = 2.0 mg aqueous suspension (N =23)
[9] = 6.0 mg aqueous suspension (N =25)

For `O=C(O)c1nc2ccccc2n([C@H]2C[C@H]3CCC[C@@H](C2)N3C2CC3CCCC(C3)C2)c1=O` (stereo partly drawn) [Compound (1C)], which “Time to maximum concentration” value [1] is on record?
Its value is “approximately 1.5 hours”.

What about the “next day residual effects by mean DSST results vs placebo” value (from here on “next day residual effects … vs placebo”) ([2]; 0.5 mg, about 9 to about 16 hours post-dosing) of the same molecule?
Its value is “no next day residual effects”.

What about the “next day residual effects … vs placebo” value ([2]; 1.0 mg, about 9 to about 16 hours post-dosing) of the same molecule?
The value was “no next day residual effects”.

What about the “next day residual effects … vs placebo” value ([2]; 3.0 mg, deviations at about 9, 10, 12, and 13 hours) of the same molecule?
The value was “minimal next day residual effects”.

And the “next day residual effects … vs placebo” value ([2]; 6.0 mg, each of the testing times)?
Its value is “some next day residual effects”.

And the “Fe, Mean (CV %)” value (clinical [3]; 2 mg + EtOH (0.7 g/kg))?
Its value is 84 (33) %.

What about the “Urine Fe, Mean” value (clinical [3]; 2 mg Alone (N = 48)) of the same molecule?
The value was 80.7%.

What about the “Fe, Mean (CV %)” value (clinical [3]; 2 mg alone) of the same molecule?
The value was 81 (12) %.

What about the “PK profile of ethanol on co-administration of Compound (1C)” value (clinical [3]; 2 mg or 6 mg with ethanol vs ethanol with placebo, FIG. 24) of the same molecule?
The value was “not affected”.

And the “Urine Fe, Mean” value (clinical [3]; 2 mg with Alcohol (N = 46))?
The value was 83.6%.

And the “Fe, Mean (CV %)” value (clinical [3]; 6 mg + EtOH (0.7 g/kg))?
The value was 80 (20) %.

What about the “Urine Fe, Mean” value (clinical [3]; 6 mg Alone (N = 47)) of the same molecule?
The value was 80.8%.

And the “Fe, Mean (CV %)” value (clinical [3]; 6 mg alone)?
Its value is 81 (10) %.

And the “Urine Fe, Mean” value (clinical [3]; 6 mg with Alcohol (N = 48))?
Its value is 79.6%.

What about the “effect of alcohol on the PK profile of Compound (1C)” value (clinical [3]; 2 and 6 mg with 0.7 g/kg ethanol) of the same molecule?
Its value is “does not alter the PK profile”.

What about the “CLr, Mean” value (clinical [3]; 2 mg) of the same molecule?
The value was 12.7 L/h.

And the Tmax (clinical [3]; 2 mg)?
The Tmax was 1.7 h.

And the half-life (clinical [3]; 2 mg + EtOH (0.7 g/kg))?
The half-life was 3.9 h.

And the half-life (clinical [3]; 2 mg, 2 mg alone)?
Its half-life is 4 h.

What about the AUC (clinical [3]; 2 mg) of the same molecule?
Its AUC is 130 ng·h/mL.

What about the CL renal (clinical [3]; 2 mg) of the same molecule?
Its CL renal is 210 mL/min.

And the Cmax (clinical [3]; 2 mg)?
Its Cmax is 28.2 ng/mL.

And the “CLr, Mean” value (clinical [3]; 6 mg)?
The value was 12.3 L/h.

And the Tmax (clinical [3]; 6 mg)?
The Tmax was 1.9 h.

And the half-life (clinical [3]; 6 mg + EtOH (0.7 g/kg))?
The half-life was 4.5 h.

What about the half-life (clinical [3]; 6 mg, 6 mg alone) of the same molecule?
Its half-life is 4.5 h.

What about the AUC (clinical [3]; 6 mg) of the same molecule?
Its AUC is 402 ng·h/mL.

What about the CL renal (clinical [3]; 6 mg) of the same molecule?
Its CL renal is 198 mL/min.

What about the Cmax (clinical [3]; 6 mg) of the same molecule?
The Cmax was 78.3 ng/mL.

What about the “Mean % Dose Excreted Unchanged” value (Cohort 1, 3 mg) of the same molecule?
Its value is 89%.

What about the “Mean Total Amount Excreted Unchanged” value (Cohort 1, 3 mg) of the same molecule?
Its value is 2.66 mg.

And the “Mean % Dose Excreted Unchanged” value (Cohort 2, 10 mg)?
The value was 70%.

What about the “Mean Total Amount Excreted Unchanged” value (Cohort 2, 10 mg) of the same molecule?
Its value is 6.95 mg.

And the “Mean % Dose Excreted Unchanged” value (Cohort 3, 30 mg)?
Its value is 28%.

What about the “Mean Total Amount Excreted Unchanged” value (Cohort 3, 30 mg) of the same molecule?
The value was 8.37 mg.

And the “mean fraction of dose excreted unchanged in urine over 48 hours (Fe48)” value (clinical [4]; 0.6 mg)?
The value was 96%.

And the “mean fraction of dose excreted unchanged in urine over 24 hours (Fe24)” value (clinical [4]; 0.6 mg)?
The value was 90%.

And the “mean fraction of dose excreted unchanged in urine over 48 hours (Fe48)” value (clinical [4]; 2 mg)?
Its value is 100%.

And the “mean fraction of dose excreted unchanged in urine over 24 hours (Fe24)” value (clinical [4]; 2 mg)?
Its value is 102%.

What about the “mean fraction of dose excreted unchanged in urine over 48 hours (Fe48)” value (clinical [4]; 10 mg) of the same molecule?
Its value is 84%.

And the “mean fraction of dose excreted unchanged in urine over 24 hours (Fe24)” value (clinical [4]; 10 mg)?
The value was 81%.

And the “time of urinary excretion of most of the unchanged compound” value (clinical [4]; across the dose range, days 1 and 16)?
The value was “during the first 8 hours”.

What about the CL renal (clinical [4]; human, in vivo, all dose levels, days 1 and 16, read-out: mean CLr) of the same molecule?
Its CL renal is 274 to 354 mL/min.

And the “Ae, Mean” value [5, 6]?
Its value is 0.2232 mg.

What about the “Fe, Mean (fraction of dose excreted unchanged in urine over 24 hours)” value [5, 6] of the same molecule?
The value was 111.60%.

And the “Ae, Mean” value [5, 7]?
Its value is 0.6891 mg.

And the “Fe, Mean (fraction of dose excreted unchanged in urine over 24 hours)” value [5, 7]?
Its value is 114.84%.

What about the “Ae, Mean” value [5, 8] of the same molecule?
Its value is 2.165 mg.

And the “Fe, Mean (fraction of dose excreted unchanged in urine over 24 hours)” value [5, 8]?
Its value is 108.26%.

What about the “Ae, Mean” value [5, 9] of the same molecule?
Its value is 6.653 mg.

What about the “Fe, Mean (fraction of dose excreted unchanged in urine over 24 hours)” value [5, 9] of the same molecule?
Its value is 110.88%.
